Data reported in patent publication US4057635A, “Carbamates of ergolines and therapeutic compositions therewith” (Simes Societa Italiana Medicinali e Sintetici S.p.A., priority 1973, dated 1977).

Experiments:
therapeutic index = assay type: in vivo
Text: The active concentrations are comprised between 2 and 20 micrograms per ml. […] The range of the active dosages is comprised between 20 and 100 micrograms/kilogram e.v. In vitro, the compound XXXVIII releases the muscles of the aorta of rabbits at concentrations of 50-100 micrograms/ml. The therapeutic index is favourable for an indication of the product as an antispastic of the gastro-intestinal system and the biliary tract.
(§1) The active dosages are comprised between 5 and 20 micrograms/ml in vitro, and from 50 to 500 micrograms/kilogram e.v. The acute toxicity of the compound LI has proven to be extremely low and consequently the therapeutic index is favorable for its use as a spasmolytic of the smooth muscles of the vessels and organs other than vessels.

acute toxicity = conditions: in vivo
Text: as §1

bowel and vessel muscles [1] = assay: spasmolytic properties on the bowel and vessel muscles in vitro
Text: as §1

bowel and vessel muscles [2] = assay: spasmolytic properties on the bowel and vessel muscles in vivo
Text: as §1

central nervous system [3] = assay: stimulation of the central nervous system; conditions: in vivo
central nervous system [4] = assay: antiserotoninic effects in vivo at the level of the central nervous system; conditions: s.c.
[5] = system: smooth muscles of the vessels; assay: antiserotoninic effects in vivo at the level of the smooth muscles of the vessels; conditions: e.v.
dogs = assay: peripheral vasoconstrictive hypertensive action in vivo, in dogs
[6] = system: alpha-adrenergic receptors; assay: stimulation of the alpha-adrenergic receptors; conditions: on the basis of the tests carried out
ileum = assay: spasmolytic activity on isolated ileum of guinea pigs
Text: as §1
In addition, the compound IV acts on the trachea of guinea pigs as a releasing agent at the concentration of 0.5-1 microgram/ml. On the ileum of the same animals, as a spasmolytic at a concentration of 50-100 micrograms/ml and on the uterus and stomach of rats as an antiserotoninic at the concentration of 0.05-0.1 micrograms/ml. […] The compound on the basis of the pharmacological and toxicological properties which have been detected can be employed for the treatment of headaches.

deferent vessel = assay: spasmolytic activity on isolated deferent vessel of rats
Text: as §1

[7] = system: muscles of the peripheral vessels; assay: spasmolytic effects in vivo on the muscles of the peripheral vessels; conditions: e.v.
Text: as §1

In the case of `CC(Cc1ccccc1)NC(=O)OC[C@@H]1C[C@@H]2c3cccc4[nH]cc(c34)C[C@H]2N(C)C1` (stereo partly drawn) [compound LI, D-6-methyl-8β-(α-methylphenethylaminocarbonyloxymethyl)-ergoline], the therapeutic index (therapeutic index; as spasmolytic of the smooth muscles of the vessels and organs other than vessels) is reported as “favorable”, the acute toxicity (acute toxicity) is reported as “extremely low” and the “spasmolytic properties on the bowel and vessel muscles” value (bowel and vessel muscles [1]) is reported as “retained”. For the same compound, the “spasmolytic properties on the bowel and vessel muscles” value (bowel and vessel muscles [2]) was “retained” and the “stimulating effects on the central nervous system” value (central nervous system [3]) was “lost the stimulating effects on the central nervous system”.

With `CN(C)C(=O)OC[C@@H]1C=C2c3cccc4[nH]cc(c34)C[C@H]2N(C)C1` [compound IV] the “active dosages (antiserotoninic, central nervous system)” value (central nervous system [4]) was 0.5-1 milligrams/kilograms, the “active dosages (antiserotoninic, smooth muscles of the vessels)” value [5] was 5-10 micrograms/kilogram and the “dose dependence of the vasoconstrictive hypertensive effect” value (dogs; dogs and cats, e.v.) was “proportional to the dosage”. The “peripheral vasoconstrictive hypertensive action” value (dogs; in vivo) was “strong peripheral vasoconstrictive hypertensive action” and the “action on the alpha-adrenergic receptors” value [6] was “stimulant of the alpha-adrenergic receptors”.

For `CN1C[C@H](COC(=O)N2CCCCCC2)C[C@@H]2c3cccc4[nH]cc(c34)C[C@H]21` [compound XXXVIII, D-6-methyl-8β-(perhydroazepinylcarbonyloxymethyl)-ergoline], the therapeutic index (therapeutic index; as antispastic of the gastro-intestinal system and the biliary tract) was “favourable”.

With `CC(Cc1ccccc1)NC(=O)OC[C@@H]1C=C2c3cccc4[nH]cc(c34)C[C@H]2N(C)C1` (stereo partly drawn) [compound XXV, D-6-methyl-8β-(α-methylphenethylaminocarbonyloxymethyl)-9,10-didehydroergoline] the spasmolytic activity (ileum) was “considerable spasmolytic activity”, the spasmolytic activity (deferent vessel) was “considerable spasmolytic activity” and the “dosages (spasmolytic effects on the muscles of the peripheral vessels)” value [7] was 20-200 micrograms/kilogram. For the same compound, the “stimulating effects on the central nervous system” value (central nervous system [3]) was “interesting actions which stimulated the central nervous system”.
